Reference: patent US9999621B2, “Medical use of artemisinin compounds and gephyrin agonists” (CeMM-Forschungszentrum für Molekulare Medizin GmbH, priority 2014, dated 2018)
Read-outs that look alike come from different tables or passages of the source. Values belong to the molecule of their own block, whether it stands above or below them.

Legend:
alphaTC1 cells = assay: Insulin expression in alpha cell line, immunofluorescence; assay type: cell-based, mouse; details: for insulin expression in alpha cells: alphaTC1 cells, immunofluorescence
aTC1 cells = assay: GABAR antagonists combined with artemether, insulin immunofluorescence; assay type: cell-based, mouse
[1] = tested on: Min6 cells overexpressing ARX; assay: High-throughput screen for functional repressors of ARX, insulin immunofluorescence; assay type: cell-based, mouse
Experimental: Mouse pancreatic cell lines αTC1 (provided by Novo Nordisk) and βTC3 (provided by Novo Nordisk) were grown in low-glucose DMEM supplemented by 10% FBS, 50 U/mL penicillin and 50 μg/mL streptomycin. Mouse pancreatic cell lines Min6 (provided by Novo Nordisk) with Doxycycline inducible construct was grown in high-glucose DMEM supplemented by 15% Tet System Approved FBS (Clonetech 631106), 71 uM 2-mercaptoethanol, 50 U/mL penicillin and 50 ug/mL streptomycin. The cell culture for human islets followed established protocols (Walpita et al., 2012).
Compounds (50 nL) were transferred to black optical suitable 384-well plate (Corning 3712) from DMSO stock plates using acoustic transfer (Labcyte Inc.). Min6 cells (3000 cells per well) were plated in 50 ul media on top of the compounds. Three days after treatment, cells were fixed in 3.7% formaldehyde for ten minutes at room temperature. Following PBS washing, cells were fixed with cold pure methanol at −20° C. for 10 minutes, permeabilized by 1% Triton X-100 in PBS for 30 minutes and blocked by 3% BSA in PBS for 30 minutes. Twenty microliters of primary anti-insulin antibody, diluted in 1:2000 in 1.5% BSA, was added per well and incubated in 4° C. overnight. […]
Images were taken by an automated microscope (Perkin Elmer Operetta) using a 20× objective. […] Images were analyzed by the Harmony (Perkin Elmer) software. […]

Btbd9 = biological target: T1, Btbd9 (Mus musculus, UniProt Q8C726); assay: Chemical proteomics pull-down with artesunate matrix, competition by free artemether; assay type: binding; details: artesunate coupled to solid support, with and without competing free artemether
T1 construct: using 10 mg total cell lysate as protein input per replicate; endogenous in cells; host or cells: cell lysate
T1 sequence (Q8C726 1-612): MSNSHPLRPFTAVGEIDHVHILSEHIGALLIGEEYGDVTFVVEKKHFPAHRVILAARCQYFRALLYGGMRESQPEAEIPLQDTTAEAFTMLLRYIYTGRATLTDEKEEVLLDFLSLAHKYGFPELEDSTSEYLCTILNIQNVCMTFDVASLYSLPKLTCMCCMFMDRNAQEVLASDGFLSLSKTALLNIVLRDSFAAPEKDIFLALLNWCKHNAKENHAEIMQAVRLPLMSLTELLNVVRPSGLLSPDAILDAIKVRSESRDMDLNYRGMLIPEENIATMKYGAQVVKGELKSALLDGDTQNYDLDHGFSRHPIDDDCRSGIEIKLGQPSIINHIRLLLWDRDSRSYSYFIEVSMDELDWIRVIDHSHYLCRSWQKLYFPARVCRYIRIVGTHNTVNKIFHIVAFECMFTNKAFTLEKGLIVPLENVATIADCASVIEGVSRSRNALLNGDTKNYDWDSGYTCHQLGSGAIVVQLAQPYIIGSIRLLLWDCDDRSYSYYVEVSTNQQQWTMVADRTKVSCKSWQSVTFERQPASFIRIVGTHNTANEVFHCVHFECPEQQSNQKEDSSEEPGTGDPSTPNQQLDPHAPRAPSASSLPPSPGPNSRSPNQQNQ
Experimental: (§1) Drug-affinity matrices were prepared essentially as described previously (Huber et al, 2014). Briefly, ethylenediamine (2.7 μL, 40 μmol), ethanolamine (9.7 μL, 160 μmol), and triethylamine (15 μL, 108 μmol) were added to 500 μL NHS-activated Sepharose 4 Fast Flow beads (GE Healthcare Bio-Sciences AB, Uppsala, Sweden) and the reaction was put on a rotary shaker for 24 h. Beads were washed and resuspended in DMSO and NHS-activated artesunate (100 μL, 1.00 μmol) was added to the suspension, and the mixture was put on a rotary shaker for 24 h. Unreacted beads were blocked by addition of NHS-acetate (10 μmol) and triethylamine (25 μL, 180 μmol), followed by agitation on a rotary shaker for 24 h. After washing with DMSO and lysis buffer, beads were incubated with cell lysates.
(§2) Affinity chromatography and elution were performed in duplicate as reported previously (Huber et al, 2014), using 10 mg total cell lysate as protein input per replicate. […]
(§3) The initial peptide identifications were used to deduce independent linear transformations for precursor and fragment masses that would minimize the mean square deviation of measured masses from theoretical. […] A false discovery rate (FDR) of <1% for protein identifications and <0.1% for peptides (including the ones exported with lower scores) was determined by applying the same procedure against a database of reversed protein sequences. […]

CUL3 = assay: as above; assay type: binding, mouse; details: artesunate coupled to solid support, with and without competing free artemether
Experimental: as §1, §2, §3

gephyrin [2] = biological target: T2, gephyrin (Mus musculus, UniProt Q8BUV3); assay: as above; assay type: binding; set-up: using 10 mg total cell lysate as protein input per replicate; endogenous in cells; host or cells: cell lysate; details: artesunate coupled to solid support, with and without competing free artemether
T2 sequence (Q8BUV3 1-769): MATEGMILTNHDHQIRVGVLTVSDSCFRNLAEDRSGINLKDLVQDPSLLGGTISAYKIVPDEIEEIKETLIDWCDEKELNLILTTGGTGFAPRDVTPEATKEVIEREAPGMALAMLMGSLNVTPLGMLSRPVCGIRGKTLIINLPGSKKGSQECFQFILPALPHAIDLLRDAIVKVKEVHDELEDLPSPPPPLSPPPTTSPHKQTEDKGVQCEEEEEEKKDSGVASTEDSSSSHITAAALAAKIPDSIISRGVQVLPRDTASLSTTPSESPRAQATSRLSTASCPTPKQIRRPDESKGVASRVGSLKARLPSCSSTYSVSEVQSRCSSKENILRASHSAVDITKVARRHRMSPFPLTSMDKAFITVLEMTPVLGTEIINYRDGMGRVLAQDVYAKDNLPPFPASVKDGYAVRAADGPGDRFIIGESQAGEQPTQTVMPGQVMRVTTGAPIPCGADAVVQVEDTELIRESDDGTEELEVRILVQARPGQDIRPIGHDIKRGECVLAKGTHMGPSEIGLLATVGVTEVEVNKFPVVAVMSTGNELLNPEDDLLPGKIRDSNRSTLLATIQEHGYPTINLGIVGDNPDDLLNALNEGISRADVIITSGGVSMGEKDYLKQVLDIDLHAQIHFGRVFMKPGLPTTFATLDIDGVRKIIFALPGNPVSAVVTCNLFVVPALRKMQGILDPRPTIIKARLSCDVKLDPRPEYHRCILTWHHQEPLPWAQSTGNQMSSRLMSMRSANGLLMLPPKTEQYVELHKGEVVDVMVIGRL
Experimental: as §1, §2, §3

gephyrin [3] = biological target: T2, gephyrin; assay: Gephyrin protein levels in alpha cells, Western blot and immunofluorescence; assay type: cell-based; set-up: endogenous in cells; host or cells: aTC1 mouse pancreatic alpha cell line; details: alpha cell line
Experimental: Whole cell extracts were generated by lysing cells in NP-40 buffer containing 150 mM sodium chloride, 1.0% NP-40 and 50 mM Tris, pH 8.0 supplemented by Protease Inhibitor Cocktail (Roche). The whole-cell lysate (30 μg) was loaded onto a SDSpolyacrylamide gel for electrophoresis at 30 mA per gel, and then transferred by electrophoresis to a nitrocellulose membrane (GE Healthcare Life Science). All the blots were incubated with the corresponding primary antibodies diluted in 1:1000 in 5% milk at 4° C. overnight and with HRP-labeled secondary antibodies (diluted 1:20000) for 1 h. The signals were detected using ECL Prime Western blotting Detection Reagent (Amersham).

SMILES: CCO[C@H]1O[C@@H]2O[C@@]3(C)CC[C@H]4[C@H](C)CC[C@@H]([C@H]1C)[C@@]24O3 [deoxyarteether]
- insulin expression in alpha cells (alphaTC1 cells): inactive

SMILES: COC1OC2OC3(C)CCC4C(C)CCC(C1C)C24O3 (centres unmarked) [Deoxyartemether]
- insulin expression in alpha cells (alphaTC1 cells): no effects

SMILES: COc1ccc(-c2ccc(=N)n(CCCC(=O)O)n2)cc1 [gabazine]
- effect of GABAR antagonist on the effects of artemether (aTC1 cells): inhibited the effects of artemether
- effect of GABAR antagonist on the effects of artemether (aTC1 cells; listed as Gabazine): inhibits the effects of Artemether

- enrichment in pull-down (Btbd9): strong enrichment
- specific interactor identified by mass spectrometry (gephyrin [2]): top specific interactor
SMILES: C[C@H]1[C@H](OC(=O)CCC(=O)O)O[C@@H]2O[C@@]3(C)CC[C@H]4[C@H](C)CC[C@@H]1[C@@]24OO3 [artesunate]
- insulin levels in the presence of ARX (ARX overexpression phenotype) ([1]; Min6 cells induced to overexpress ARX, 72 hours, immunofluorescence): active
- insulin expression in alpha cells (alphaTC1 cells): active
- enrichment in pull-down (CUL3): strong enrichment

- gephyrin protein levels (gephyrin [3]): dose-dependent increase
SMILES: C[C@@H]1CC[C@H]2[C@@H](C)C(=O)O[C@@H]3O[C@@]4(C)CC[C@@H]1[C@]32OO4 [artemisinin, (3R,5aS,6R,8aS,9R,12S,12aR)-octahydro-3,6,9-trimethyl-3,12-epoxy-12H-pyrano[4,3-j]-1,2-benzodioxepin-10(3H)-one]

- EC50 ([1]; Mus musculus, Min6 cells overexpressing ARX, dose response, immunofluorescence (FIG. 3c), read-out: half maximum effective concentration): < 1 µM
- EC50 (alphaTC1 cells; Mus musculus, 72 h, alpha cells, inducing insulin expression, immunofluorescence (FIG. 3d), read-out: half maximum effective concentration): < 10 µM
SMILES: CO[C@H]1O[C@@H]2O[C@@]3(C)CC[C@H]4[C@H](C)CC[C@@H]([C@H]1C)[C@@]24OO3 [artemether]

SMILES: Cc1ccsc1C(=CCCN1CCC[C@@H](C(=O)O)C1)c1sccc1C [thiagabine]
- insulin expression in alpha cells (alphaTC1 cells): increased the insulin expression
- insulin expression in alpha cells (alphaTC1 cells; listed as Thiagabine): increases insulin production
